From patent US5358945A, “Pyrimidine compound and pharmaceutically acceptable salts thereof” (Mitsui Petrochemical Industries, Ltd., priority 1990, dated 1994)
Where a name gives a salt, the structure may show the parent alone.

Tests used:
[1] = test system: mouse; experiment: Acute toxicity in mouse (Table 10); format: in vivo
Protocol: The acute toxicity of the compounds of the invention was examined by the following method.
Male ddy-strain 5-week old mice, 4-6 per group, were used as experimental animals. Each of the compounds was dissolved or suspended in saline and administered perorally (p.o.) or intraperitoneally (i.p.), and the toxicity of the compound was assessed 24 hours after the administration.

[2] = test system: Mouse neuro 2a cells; experiment: Neurite outgrowth of mouse neuroblastoma neuro 2a cells (Table 7); format: cell-based; conditions: mean ± S.D.
Procedure, shortened: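 Neuro-2a cells seeded at 1,000 cells/well in DMEM with 10% FCS, cultured one day at 37 °C, 5% CO2, then 24 h with compound (up to 6 concentrations, triplicate). Fixed with glutaraldehyde, methylene blue stained; percentage of cells bearing neurites ≥2× cell long diameter counted microscopically (>200 cells).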

[3] = test system: Mouse neuroblastoma cells NS-20Y; experiment: Neurite appearance in mouse neuroblastoma NS-20Y cells (Table 8); format: cell-based;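 note: cells grown in polyornithine-coated dishes, with timing counted from the start of culture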
[4] = test system: crushed sciatic nerves; experiment: Recovery of the interdigital distance in rats with crushed sciatic nerves (Table 9); format: in vivo, rat (male Wistar)
Protocol: Rats whose sciatic nerves were crushed were prepared as a model for peripheral nervous disorders and the effects of the compounds of this invention on it were tested. It was made clear that the compounds of the present invention have an effect of promoting recovery of the interdigit distance and the weight of the soleus muscle to normal values.
Curative effect on rats with crushed sciatic nerves: The curing effect of the compound of the invention was tested on rats having crushed sciatic nerves as a model of peripheral nervous disorder using (1) a change in the action of the hind paw with the crushed sciatic nerves and (2) a change in the weight of the muscle as an index of the course of degeneration and regeneration of peripheral nerves.
In the experiment, male Wistar rats (6 weeks old), 10-15 per group, were used. The sciatic nerves were crushed by a method similar to the method of Yamatsu et al. (see Kiyomi Yamatsu, Takenori Kaneko, Akifumi Kitahara and Isao Ohkawa, Journal of Japanese Pharmacological Society, 72, 259-268 (1976) and the method of Hasegawa et al. (see Kazuo Hasegawa, Naoji Mikuni and Yutaka Sakai, Journal of Japanese Pharmacological Society, 7 4 721-734 (1978). Specifically, under anesthesia with pentobarbital (40 mg/kg, i.p.), the left side sciatic nerve was exposed at the femur and a given site was crushed with hemostat (2ram in width) for 30 seconds. After crushing, the operated site was immediately sitched. Vincristine, known to delay the regeneration of peripheral nerves, was administered intraperitoneally at 100 μg/kg per week.
Test compounds selected from the compounds of the invention were administered intraperitoneally or orally once a day from the day of operation to the 30th day. A group to which 0.9% saline was administered was used as control.
According to the method of Hasegawa [Hasegawa, K., Experientia, 34, 750-751 ( 1978)], the distance between the first and fifth digits of the hind paw was measured and the ratio of a crushed-side distance to a normal-side distance was calculated.
*Compound 274 is orally administered to a group of rats with the crushed

[5] = i.p., 24 hours after administration

Question: How did the “Estimated LD50” value ([1]; in vivo, ip) turn out when O=C1CCCN1c1ccnc(N2CCCCC2)n1 [Compound 274, 4-(2-oxopyrrolidino)-2-(4-piperidino) pyrimidine hydrochloride] was run?
Answer: The value was 250 to 500 mg/kg.

Question: What about the “Ratio of the number of cells having neurites with a length of at least two times as large as the diameter of cells to the total number of cells” value (from here on “Ratio”) ([2]; 0.3 mM, hydrochloride) of the same compound?
Answer: The value was 25.8 ± 3.5%.

Question: What about the “The number of cells in which neurites appeared/Total number of cells” value ([3]; 24 hour, 0.1 mM, hydrochloride) of the same compound?
Answer: Its value is 4/50.

Question: What about the “The number of cells in which neurites appeared/Total number of cells” value ([3]; 24 hour, 0.2 mM, hydrochloride) of the same compound?
Answer: The value was 6/50.

Question: And the “The number of cells in which neurites appeared/Total number of cells” value ([3]; 48 hour, 0.2 mM, hydrochloride)?
Answer: The value was 4/50.

Question: What about the “The number of cells in which neurites appeared/Total number of cells” value ([3]; 48 hour, 0.5 mM, hydrochloride) of the same compound?
Answer: Its value is 6/50.

Question: What about the “Rate of recovery of the interdigital distance” value (from here on “Rate”) ([4]; 7.5 mg/kg orally, 7 days after crush) of the same compound?
Answer: The value was 42.6 ± 6.8%.

Question: What about the “Rate” value ([4]; 7.5 mg/kg orally, 14 days after crush) of the same compound?
Answer: The value was 37.6%.

Question: And the “Rate” value ([4]; 7.5 mg/kg orally, 16 days after crush)?
Answer: The value was 38.4%.

Question: What about the “Rate” value ([4]; 7.5 mg/kg orally, 18 days after crush) of the same compound?
Answer: Its value is 40.9 ± 6.2%.

Question: And the “Rate” value ([4]; 7.5 mg/kg orally, 20 days after crush)?
Answer: The value was 45.6 ± 14.0%.

Question: What about the “Rate” value ([4]; 7.5 mg/kg orally, 22 days after crush) of the same compound?
Answer: Its value is 46.8 ± 13.2%.

Question: What about the “Rate” value ([4]; 7.5 mg/kg orally, 24 days after crush) of the same compound?
Answer: Its value is 48.2%.

Question: What about the “Rate” value ([4]; 7.5 mg/kg orally, 26 days after crush) of the same compound?
Answer: The value was 54.8%.

Question: And the “Rate” value ([4]; 7.5 mg/kg orally, 28 days after crush)?
Answer: Its value is 66.9 ± 19.6%.

Question: What about the “Rate” value ([4]; 7.5 mg/kg orally, 30 days after crush) of the same compound?
Answer: Its value is 64.0 ± 21.2%.

Question: And the “Rate” value ([4]; 15 mg/kg orally, 7 days after crush)?
Answer: The value was 39.8 ± 5.2%.

Question: What about the “Rate” value ([4]; 15 mg/kg orally, 14 days after crush) of the same compound?
Answer: Its value is 38.2%.

Question: And the “Rate” value ([4]; 15 mg/kg orally, 16 days after crush)?
Answer: The value was 39.4%.

Question: What about the “Rate” value ([4]; 15 mg/kg orally, 18 days after crush) of the same compound?
Answer: The value was 40.5 ± 4.2%.

Question: What about the “Rate” value ([4]; 15 mg/kg orally, 20 days after crush) of the same compound?
Answer: The value was 46.7 ± 7.3%.

Question: What about the “Rate” value ([4]; 15 mg/kg orally, 22 days after crush) of the same compound?
Answer: Its value is 50.0 ± 10.0%.

Question: What about the “Rate” value ([4]; 15 mg/kg orally, 24 days after crush) of the same compound?
Answer: The value was 56.8%.

Question: And the “Rate” value ([4]; 15 mg/kg orally, 26 days after crush)?
Answer: Its value is 62.2%.

Question: What about the “Rate” value ([4]; 15 mg/kg orally, 28 days after crush) of the same compound?
Answer: Its value is 65.5 ± 19.8%.

Question: And the “Rate” value ([4]; 15 mg/kg orally, 30 days after crush)?
Answer: The value was 70.1 ± 21.4%.

Question: What about the “Rate” value ([4]; 30 mg/kg orally, 7 days after crush) of the same compound?
Answer: The value was 38.8 ± 4.4%.

Question: What about the “Rate” value ([4]; 30 mg/kg orally, 14 days after crush) of the same compound?
Answer: The value was 39.2%.

Question: What about the “Rate” value ([4]; 30 mg/kg orally, 16 days after crush) of the same compound?
Answer: Its value is 38.3%.

Question: What about the “Rate” value ([4]; 30 mg/kg orally, 18 days after crush) of the same compound?
Answer: The value was 40.8 ± 4.5%.

Question: And the “Rate” value ([4]; 30 mg/kg orally, 20 days after crush)?
Answer: Its value is 43.8 ± 6.7%.

Question: What about the “Rate” value ([4]; 30 mg/kg orally, 22 days after crush) of the same compound?
Answer: Its value is 47.8 ± 11.5%.

Question: And the “Rate” value ([4]; 30 mg/kg orally, 24 days after crush)?
Answer: Its value is 57.0%.

Question: What about the “Rate” value ([4]; 30 mg/kg orally, 26 days after crush) of the same compound?
Answer: The value was 60.9%.

Question: What about the “Rate” value ([4]; 30 mg/kg orally, 30 days after crush) of the same compound?
Answer: Its value is 73.6 ± 20.0%.

Question: For O=C1CCCN1c1ccnc(N2CCN(Cc3ccccc3)CC2)n1 [Compound 424], which “Estimated LD50” value [1, 5] is on record?
Answer: The value was > 500 mg/kg.

Question: And the “Ratio” value ([2]; 0.03 mM)?
Answer: Its value is 4.5 ± 2.4%.

Question: And the “Ratio” value ([2]; 0.1 mM)?
Answer: The value was 5.9 ± 1.7%.

Question: What about the “Ratio” value ([2]; 0.3 mM) of the same compound?
Answer: The value was 5.2 ± 2.5%.

Question: And the “The number of cells in which neurites appeared/Total number of cells” value ([3]; 24 hour, 0.1 mM)?
Answer: Its value is 3/50.

Question: And the “The number of cells in which neurites appeared/Total number of cells” value ([3]; 24 hour, 0.2 mM)?
Answer: The value was 5/50.

Question: What about the “The number of cells in which neurites appeared/Total number of cells” value ([3]; 48 hour, 0.1 mM) of the same compound?
Answer: The value was 2/50.

Question: Which “Estimated LD50” value [1, 5] does the source give for CN(C)c1nccc(N2CCCC2=O)n1 [Compound 432] here?
Answer: The value was > 500 mg/kg.

Question: And the “Ratio” value ([2]; 0.03 mM)?
Answer: Its value is 4.0 ± 2.2%.

Question: What about the “Ratio” value ([2]; 0.1 mM) of the same compound?
Answer: The value was 4.2 ± 1.7%.

Question: And the “Ratio” value ([2]; 1 mM)?
Answer: Its value is 5.1 ± 1.2%.

Question: What about the “The number of cells in which neurites appeared/Total number of cells” value ([3]; 24 hour, 0.5 mM) of the same compound?
Answer: Its value is 6/50.

Question: And the “The number of cells in which neurites appeared/Total number of cells” value ([3]; 48 hour, 0.2 mM)?
Answer: The value was 7/50.

Question: And the “The number of cells in which neurites appeared/Total number of cells” value ([3]; 48 hour, 0.5 mM)?
Answer: Its value is 8/50.

Question: Which results are given for CCCCN(CCCC)c1nccc(N2CCCC2=O)n1 [Compound 440]?
Answer: Estimated LD50 [1, 5]: > 500 mg/kg; Ratio of the number of cells having neurites with a length of at least two times as large as the diameter of cells to the total number of cells ([2]; 0.1 mM): 4.3 ± 0.8%; The number of cells in which neurites appeared/Total number of cells ([3]; 24 hour, 0.1 mM): 3/50; The number of cells in which neurites appeared/Total number of cells ([3]; 24 hour, 0.5 mM): 4/50; The number of cells in which neurites appeared/Total number of cells ([3]; 48 hour, 0.1 mM): 4/50
